Test results published in ChEMBL document CHEMBL1128801, “Synthesis and biological evaluation of 14-alkoxymorphinans.12.1 A phenethyl analogue of the -selective opioid receptor antagonist cyprodime” (Bioorg Med Chem Lett, 1995).

Tests used:
Mus musculus [1] = organism: Mus musculus; experiment: In Vitro evaluation of antagonist activity induced by naloxone on mouse vas deferens preparation; type: functional
Mus musculus [2] = organism: Mus musculus; experiment: Effective concentration required for in Vitro evaluation of agonist activity on mouse vas deferens preparation; type: functional
Cavia porcellus [3] = organism: Cavia porcellus; experiment: In vitro evaluation of antagonistic activity induced by naloxone in guinea-pig ileum myenteric plexus preparation (GPI); type: functional
Cavia porcellus [4] = organism: Cavia porcellus; experiment: Effective concentration required for in vitro agonist potency in guinea-pig ileum myenteric plexus preparation (GPI); type: functional
Mus musculus [5] = organism: Mus musculus; experiment: In vitro evaluation of antagonist activity induced by naloxone on mouse vas deferens preparation; type: functional
Mus musculus [6] = organism: Mus musculus; experiment: Effective concentration required for in vitro evaluation of agonist activity on mouse vas deferens preparation; type: functional
Rattus norvegicus = experiment: Effective dose required for in vivo antinociceptive effect in rat when administered subcutaneously; type: functional; details: sc
Mu-type opioid receptor = Mu-type opioid receptor (Cavia porcellus, UniProt P97266); experiment: Binding affinity by its ability to displace [3H]DAMGO from mu receptor in homogenates of guinea pig brain; type: tissue-based
Sequence of Mu-type opioid receptor (P97266 whole entry): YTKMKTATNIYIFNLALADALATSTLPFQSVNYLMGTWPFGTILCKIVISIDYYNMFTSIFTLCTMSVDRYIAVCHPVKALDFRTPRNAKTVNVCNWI

[7] = molecular target: Kappa-type opioid receptor (Cavia porcellus, UniProt P41144); experiment: Binding affinity by its ability to displace [3H]-U-69,593 from kappa receptor in homogenates of guinea pig brain; type: tissue-based
Sequence of Kappa-type opioid receptor (P41144 whole entry): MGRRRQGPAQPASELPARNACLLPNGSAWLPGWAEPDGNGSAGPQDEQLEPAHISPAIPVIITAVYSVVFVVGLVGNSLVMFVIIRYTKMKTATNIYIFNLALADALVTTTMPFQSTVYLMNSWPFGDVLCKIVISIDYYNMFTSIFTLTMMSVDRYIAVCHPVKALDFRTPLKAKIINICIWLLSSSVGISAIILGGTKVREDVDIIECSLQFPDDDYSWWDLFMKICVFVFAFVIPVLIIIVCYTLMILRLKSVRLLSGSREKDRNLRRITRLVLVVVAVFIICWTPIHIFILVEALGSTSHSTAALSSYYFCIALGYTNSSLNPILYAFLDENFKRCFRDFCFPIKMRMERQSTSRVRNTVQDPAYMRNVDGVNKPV

Cavia porcellus [8] = organism: Cavia porcellus; experiment: Effective concentration of compound required for in vitro agonist potency in guinea-pig ileum myenteric plexus preparation (GPI); type: functional
Mus musculus [9] = organism: Mus musculus; experiment: Effective concentration of compound required for in vitro agonist activity on mouse vas deferens preparation; type: functional

| SMILES | Ke (Cavia porcellus [3]) | Ke (Mus musculus [5]) | ED50 (Rattus norvegicus) | Ki (Mu-type opioid receptor) | Ki [7] | other results |
| --- | --- | --- | --- | --- | --- | --- |
| CC1(C)SSC(C)(C)[C@@H](NC(=O)[C@@H](N)Cc2ccc(O)cc2)C(=O)NCC(=O)N[C@@H](Cc2ccccc2)C(=O)N[C@H]1C(=O)O |  |  |  |  |  | Ke (Mus musculus [1]): 20.4 nM; EC50 (Mus musculus [2]): 2.8 nM |
| C[C@@H](NC(=O)[C@@H](N)Cc1ccc(O)cc1)C(=O)NCC(=O)N(C)[C@@H](Cc1ccccc1)C(=O)NCCO [DAMGO] | 1.6 nM | 1.9 nM |  |  |  | EC50 (Cavia porcellus [4]): 11.8 nM; EC50 (Mus musculus [6]): 24.7 nM |
| COc1cccc2c1[C@]13CCN(C)[C@H](C2)[C@]1(OC)CCC(=O)C3 |  |  | 0.021 mg/kg | 0.7 nM | 1.5 nM |  |
| COc1cccc2c1[C@]13CCN(CC4CC4)[C@H](C2)[C@]1(OC)CCC(=O)C3 [CYPRODIME BROMIDE] |  |  |  |  | 61.1 nM |  |
| Br.COc1cccc2c1[C@]13CCN(CCc4ccccc4)C(C2)[C@]1(OC)CCC(=O)C3 | 0.54 nM | 1.67 nM | 0.037 mg/kg | 0.9 nM | 690 nM | EC50 (Cavia porcellus [8]): 17.4 nM; EC50 (Mus musculus [9]): 11.8 nM |
| CN1CC[C@]23c4c5ccc(O)c4O[C@H]2[C@@H](O)C=C[C@H]3[C@H]1C5.Cl [MORPHINE HYDROCHLORIDE] |  |  | 1.8 mg/kg |  |  |  |
